Data from paper PMC4860947 (Nature, 2016).

How the values were obtained:
C. glabrata [1] = type: in vivo, Candida glabrata; conditions: mice; fluconazole 100 mg/kg/day, 7 days
C. glabrata [2] = test: Mouse disseminated fungal burden model; type: in vivo, Candida glabrata; conditions: mice, CgPDR1 wild-type strain; 25 mg/kg fluconazole (low FLU) alone
[3] = test system: C. glabrata PDR1 wild-type or PDR1^L280F strains; design: species or system Candida glabrata; conditions: in vivo
[4] = test system: C. glabrata adherence to CHO-Lec2 cells; test: Yeast adherence to CHO-Lec2 epithelial cells; type: cell-based, Candida glabrata; conditions: ketoconazole 40 µM alone, last 15 minutes
[5] = test system: C. glabrata strains with wild-type or gain-of-function CgPDR1; type: cell-based, Candida glabrata; conditions: azole alone

## OC(Cn1cncn1)(Cn1cncn1)c1ccc(F)cc1F [fluconazole]
C. glabrata [1]
  fungal burden in the bladder and kidney: significantly reduces fungal burden
C. glabrata [2]
  tissue fungal burden: poorly reduced tissue burden
[3]
  survival of G. mellonella larvae: sensitive to fluconazole alone
  survival of G. mellonella larvae compared to vehicle: did not significantly increase survival

## CC(=O)N1CCN(c2ccc(OCC3COC(Cn4ccnc4)(c4ccc(Cl)cc4Cl)O3)cc2)CC1 (stereo not drawn) [ketoconazole]
[4]
  relative adherence of PDR1^L280F mutant to epithelial (CHO-Lec2) cells: reduced relative adherence to levels comparable to a PDR1 wild-type strain
[5]
  sensitivity of CgPDR1 wild-type strain to azole on plates: sensitive
